# Measured values published in US9079906B2, “Triazolopyridazines as PAR1 inhibitors, production thereof, and use as medicaments” (Sanofi, priority 2008, dated 2015).
# Structures can show the parent of a compound that is named as a salt.
# Biological target: PAR1 (Homo sapiens (Human), UniProt P25116)
# Test: PAR1 binding test (radioligand displacement, membrane preparation)
# Conditions: human PAR1 expressed in High Five insect cell membranes; radioligand 20 nM; read-out: Inhibition of binding IC50
# Description: The synthesized substances were examined in a PAR1 binding test. This tested whether the substances can inhibit the binding of a radioactively labeled PAR1 agonist known from the literature at the PAR1 receptor (Ho-Sam Ahn, Mol Pharm, 51:350-356, 1997). The human PAR1 receptor was expressed transiently in High Five insect cells. From these cells, after 48 hours, a membrane preparation was produced by standard methods, aliquoted into 10 mM Tris-HCl; 0.3 mM EDTA; 1 mM EGTA; 250 mM sucrose pH 7.5, and stored at −80° C.
# The substances were preincubated with the membrane at room temperature for 15 minutes, then the radioligand (ALA-(para-F-Phe)-Arg-ChA-homoArg-(3,4-^3H-Tyr)-NH2; approx. 40 Ci/mMol) was added. The end concentration of the radioligand in the test buffer (50 mM Tris-HCl; 10 mM MgCl2; 1 mM EGTA; 0.1% BSA; 2% DMSO) was 20 nM, that of the membrane 1 mg/ml. After an incubation time of 60 minutes, 25 μL of the mixture were transferred to a 96-well MultiScreenHTS FB microtiter filtration plate (from Millipore), which had been pretreated beforehand with a 0.75% aqueous polyethyleneimine solution for 5 hours at room temperature. Thereafter, with vacuum extraction, each well was washed four times with 300 μL of buffer (50 mM Tris-HCl; 10 mM MgCl2; 1 mM EGTA). The plate was then dried overnight, 100 μl of scintillator per well were added, and the plate was analyzed after 6 hours in a Wallac MicroBeta (from PerkinElmer) liquid scintillation counter. The nonspecific binding was determined in the presence of 100 μM SCH79797 (PAR-1 antagonist; from Tocris, Cat. No. 1592) and subtracted from all measurements. The 100% value used was a control without inhibitor. The % inhibition values of a substance dilution series were used to calculate the IC50 with the aid of nonlinear regression analysis according to the 4-parameter equation.
# PAR1, sequence (P25116 22-425): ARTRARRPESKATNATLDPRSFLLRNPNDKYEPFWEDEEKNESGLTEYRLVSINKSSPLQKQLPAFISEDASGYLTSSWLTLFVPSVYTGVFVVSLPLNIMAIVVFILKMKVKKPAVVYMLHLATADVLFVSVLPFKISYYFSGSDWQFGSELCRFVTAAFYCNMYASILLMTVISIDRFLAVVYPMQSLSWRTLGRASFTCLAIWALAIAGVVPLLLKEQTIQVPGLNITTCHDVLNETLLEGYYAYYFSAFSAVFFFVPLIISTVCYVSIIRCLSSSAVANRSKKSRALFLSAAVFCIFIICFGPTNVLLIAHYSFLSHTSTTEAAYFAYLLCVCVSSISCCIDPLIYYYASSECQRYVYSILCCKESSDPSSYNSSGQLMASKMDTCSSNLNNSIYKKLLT
row,IC50 [nM],SMILES
1,416,"CCOc1nn2c(=N)n(CC(=O)c3cc(OCCCF)cc(C(C)(C)C)c3)nc2c(C)c1C [Example 222, 1-[3-tert-butyl-5-(3-fluoro-propoxy)phenyl]-2-(6-ethoxy-3-imino-7,8-dimethyl-[1,2,4]triazolo[4,3-b]pyridazin-2-yl)ethanone hydrochloride]"
2,219,"Cc1c(OC(C)C)nn2c(=N)n(CC(=O)c3cc(OCCO)cc(C(C)(C)C)c3)nc2c1C [Example 215, 1-[3-tert-butyl-5-(2-hydroxy-ethoxy)phenyl]-(3-imino-6-isopropoxy-7,8-dimethyl-[1,2,4]triazolo[4,3-b]pyridazin-2-yl)ethanone hydrochloride]"
3,2500,"CCOc1cc(C)c2nn(CC(=O)c3cc(OC(COC)COC)cc(C(C)(C)C)c3)c(=N)n2n1 [Example 127, 1-[3-tert-butyl-5-(2-methoxy-1-methoxymethylethoxy)phenyl]-2-(6-ethoxy-3-imino-8-methyl-[1,2,4]triazolo[4,3-b]pyridazin-2-yl)ethanone hydrochloride]"
4,1400,"Cc1cc(OCC2(C)COC2)nn2c(=N)n(CC(=O)c3cc(OCCO)cc(C(C)(C)C)c3)nc12 [Example 236, 1-[3-tert-butyl-5-(2-hydroxy-ethoxy)phenyl]-2-[3-imino-8-methyl-6-(3-methyloxetan-3-ylmethoxy)-[1,2,4]triazolo[4,3-b]-pyridazin-2-yl]ethanone hydrobromide]"
5,98,"CCC(CC)Oc1cc(C)c2nn(CC(=O)c3cc(OCCO)c(OC)c(C(C)(C)C)c3)c(=N)n2n1 [Example 117, 1-[3-tert-butyl-5-(2-hydroxy-ethoxy)-4-methoxyphenyl]-2-[6-(1′-ethylpropoxy)-3-imino-8-methyl-[1,2,4]triazolo[4,3-b]-pyridazin-2-yl]ethanone hydrochloride]"
6,364,"CCOc1nn2/c(=N/C)n(CC(=O)c3cc(OCCO)cc(C(C)(C)C)c3)nc2c(C)c1C [Example 163, 1-[3-tert-butyl-5-(2-hydroxy-ethoxy)phenyl]-2-{6-ethoxy-7,8-dimethyl-3-[(E)-methylimino]-[1,2,4]triazolo[4,3-b]pyridazin-2-yl}ethanone hydrochloride]"
7,183,"CCOc1cc(CC)c2nn(CC(=O)c3cc(OCCCO)c(OC)c(C(C)(C)C)c3)c(=N)n2n1 [Example 174, 1-[3-tert-butyl-5-(3-hydroxy-propoxy)-4-methoxyphenyl]-2-(6-ethoxy-8-ethyl-3-imino-[1,2,4]triazolo[4,3-b]pyridazin-2-yl)ethanone hydrochloride]"
8,155,"CCOc1nn2c(=N)n(CC(=O)c3cc(OCCO)cc(C(C)(C)C)c3)nc2c(CC)c1C [Example 221, 1-[3-tert-butyl-5-(2-hydroxy-ethoxy)phenyl]-2-(6-ethoxy-8-ethyl-3-imino-7-methyl-[1,2,4]triazolo[4,3-b]pyridazin-2-yl)ethanone hydrochloride]"
9,107,"CCC(CC)Oc1cc(C)c2nn(CC(=O)c3cc(OCCO)cc(C(C)(C)C)c3)c(=N)n2n1 [Example 89, 1-[3-tert-butyl-5-(2-hydroxyethoxy)phenyl]-2-[6-(1-ethylpropoxy)-3-imino-8-methyl-[1,2,4]triazolo[4,3-b]pyridazin-2-yl]ethanone hydrochloride]"
10,365,"CCC(CC)Oc1cc(C)c2nn(CC(=O)c3cc(OCCO)cc(S(F)(F)(F)(F)F)c3)c(=N)n2n1 [Example 161, 2-[6-(1-ethylpropoxy)-3-imino-8-methyl-[1,2,4]triazolo[4,3-b]pyridazin-2-yl]-1-[3-(2-hydroxy-ethoxy)-5-(pentafluorosulfanyl)-phenyl]ethanone trifluoroacetic acid salt]"
11,1400,"COCCCOc1cc(C(=O)Cn2nc3c(C)cc(OCCO)nn3c2=N)cc(C(C)(C)C)c1 [Example 101, 1-[3-tert-butyl-5-(3-methoxy-propoxy)phenyl]-2-[6-(2-hydroxyethoxy)-3-imino-8-methyl-[1,2,4]triazolo[4,3-b]pyridazin-2-yl]ethanone hydrochloride]"
12,484,"CC(C)Oc1cc(OC(C)C)c2nn(CC(=O)c3cc(OCCO)cc(C(C)(C)C)c3)c(=N)n2n1 [Example 240, 1-[3-tert-butyl-5-(2-hydroxy-ethoxy)phenyl]-2-(3-imino-6,8-diisopropoxy-[1,2,4]triazolo[4,3-b]pyridazin-2-yl)ethanone hydrochloride]"

# Further lines, the compound ahead of its results:
row,SMILES,IC50 [nM]
1,"CCOc1nn2c(=N)n(CC(=O)c3cc(C(C)(C)C)cc(C(C)(C)OC)c3)nc2c(C)c1C [Example 230, 1-[3-tert-butyl-5-(1-methoxy-1-methylethyl)phenyl]-2-(6-ethoxy-3-imino-7,8-dimethyl-[1,2,4]triazolo[4,3-b]pyridazin-2-yl)ethanone hydrochloride]",234
2,"CCOc1nn2c(=N)n(CC(=O)c3cc(OC)cc(S(F)(F)(F)(F)F)c3)nc2cc1N(CC)CC [Example 84, 2-(7-diethylamino-6-ethoxy-3-imino-[1,2,4]triazolo[4,3-b]pyridazin-2-yl)-1-[3-methoxy-5-(pentafluorosulfanyl)-phenyl]ethanone trifluoroacetic acid salt]",9800
3,"CCC(CC)Oc1ccc2nn(CC(=O)c3cc(OCCOC)cc(C(C)(C)C)c3)c(=N)n2n1 [Example 50, 1-[3-tert-butyl-5-(2-methoxy-ethoxy)phenyl]-2-[6-(1-ethylpropoxy)-3-imino-[1,2,4]triazolo[4,3-b]pyridazin-2-yl]ethanone hydrochloride]",631
4,"CCOc1cc(C(C)(C)O)c2nn(CC(=O)c3cc(OCCCO)c(OC)c(C(C)(C)C)c3)c(=N)n2n1 [Example 168, 1-[3-tert-butyl-5-(3-hydroxy-propoxy)-4-methoxyphenyl]-2-[6-ethoxy-8-(1-hydroxy-1-methyl-ethyl)-3-imino-[1,2,4]triazolo[4,3-b]pyridazin-2-yl]ethanone hydrochloride]",257
5,"CCOc1nn2c(=N)n(CC(=O)c3cc(N4CCOCC4)c(OC)c(C(C)(C)C)c3)nc2cc1CC [Example 144, 1-(3-tert-butyl-4-methoxy-5-morpholin-4-ylphenyl)-2-(6-ethoxy-7-ethyl-3-imino-[1,2,4]triazolo[4,3-b]pyridazin-2-yl)ethanone trifluoroacetic acid salt]",827
6,"COc1c(OCCCCO)cc(C(=O)Cn2nc3c(C)cc(OCC4CC4)nn3c2=N)cc1C(C)(C)C [Example 199, 1-[3-tert-butyl-5-(4-hydroxy-butoxy)-4-methoxyphenyl]-2-(6-cyclopropylmethoxy-3-imino-8-methyl-[1,2,4]triazolo[4,3-b]pyridazin-2-yl)ethanone hydrochloride]",206
7,"CCNC(=O)c1nn2/c(=N/C)n(CC(=O)c3cc(OCCO)c(OC)c(C(C)(C)C)c3)nc2c(C)c1C [Example 207, N-ethyl-2-{2-[3-tert-butyl-5-(2-hydroxyethoxy)-4-methoxy-phenyl]-2-oxoethyl}-7,8-dimethyl-3-[(E)-methylimino]-2,3-dihydro-[1,2,4]triazolo[4,3-b]pyridazine-6-carboxamide hydrochloride]",174
8,"CCC(CC)Oc1ccc2nn(CC(=O)c3cc(N4CCOCC4)c(OC)c(C(C)(C)C)c3)c(=N)n2n1 [Example 14, 1-(3-tert-butyl-4-methoxy-5-morpholin-4-ylphenyl)-2-[6-(1-ethylpropoxy)-3-imino-[1,2,4]triazolo[4,3-b]pyridazin-2-yl)ethanone trifluoroacetic acid salt]",279
9,"CCN(CC)c1nn2c(=N)n(CC(=O)c3cc(OCCCO)c(OC)c(C(C)(C)C)c3)nc2c(C)c1C [Example 186, 1-[3-tert-butyl-5-(3-hydroxy-propoxy)-4-methoxyphenyl]-2-(6-diethylamino-3-imino-7,8-methyl-[1,2,4]triazolo[4,3-b]pyridazin-2-yl)ethanone hydrochloride]",119
10,"COc1c(N2CCOCC2)cc(C(=O)Cn2nc3ccc(Cl)nn3c2=N)cc1C(C)(C)C [Example 56, 1-(3-tert-butyl-4-methoxy-5-morpholin-4-ylphenyl)-2-(6-chloro-3-imino-[1,2,4]triazolo-[4,3-b]pyridazin-2-yl)-ethanone trifluoroacetic acid salt]",24000
11,"CCNC(=O)c1nn2/c(=N/C)n(CC(=O)c3cc(OCCCO)c(OC)c(C(C)(C)C)c3)nc2c(C)c1C [Example 239, N-ethyl-2-{2-[3-tert-butyl-5-(3-hydroxypropoxy)-4-methoxy-phenyl]-2-oxoethyl}-7,8-dimethyl-3-[(E)-methylimino]-2,3-dihydro-[1,2,4]triazolo[4,3-b]pyridazine-6-carboxamide hydrochloride]",113
12,"CCC(CC)Oc1ccc2nn(CC(=O)c3cc(OCC4CC4)cc(C(C)(C)C)c3)c(=N)n2n1 [Example 26, 1-(3-tert-butyl-5-cyclopropylmethoxyphenyl)-2-[6-(1-ethylpropoxy)-3-imino-[1,2,4]triazolo[4,3-b]pyridazin-2-yl]ethanone hydrochloride]",1100
